Source: ChEMBL document CHEMBL1130256, “1-[1-2-Benzo[b]thiopheneyl)cyclohexyl]piperidine hydrochloride (BTCP) yields two active primary metabolites in vitro: synthesis, identification from rat liver microsome extracts, and affinity for the neuronal dopamine transporter” (J Med Chem, 1997)
pIC50: −log10 of the molar value.

Legend:
[1] = biological target: Sodium-dependent dopamine transporter (Rattus norvegicus, UniProt P23977); experiment: Inhibitory activity of compound against [3H]BTCP binding to neuronal dopamine transporter of rat striatal membrane
[2] = Amount of metabolites in the microsomal medium after 90 min incubation of BTCP (500 uM); format: ADME, Microsome; conditions: microsomes, 1.5 h

Sequence of Sodium-dependent dopamine transporter (P23977 whole entry): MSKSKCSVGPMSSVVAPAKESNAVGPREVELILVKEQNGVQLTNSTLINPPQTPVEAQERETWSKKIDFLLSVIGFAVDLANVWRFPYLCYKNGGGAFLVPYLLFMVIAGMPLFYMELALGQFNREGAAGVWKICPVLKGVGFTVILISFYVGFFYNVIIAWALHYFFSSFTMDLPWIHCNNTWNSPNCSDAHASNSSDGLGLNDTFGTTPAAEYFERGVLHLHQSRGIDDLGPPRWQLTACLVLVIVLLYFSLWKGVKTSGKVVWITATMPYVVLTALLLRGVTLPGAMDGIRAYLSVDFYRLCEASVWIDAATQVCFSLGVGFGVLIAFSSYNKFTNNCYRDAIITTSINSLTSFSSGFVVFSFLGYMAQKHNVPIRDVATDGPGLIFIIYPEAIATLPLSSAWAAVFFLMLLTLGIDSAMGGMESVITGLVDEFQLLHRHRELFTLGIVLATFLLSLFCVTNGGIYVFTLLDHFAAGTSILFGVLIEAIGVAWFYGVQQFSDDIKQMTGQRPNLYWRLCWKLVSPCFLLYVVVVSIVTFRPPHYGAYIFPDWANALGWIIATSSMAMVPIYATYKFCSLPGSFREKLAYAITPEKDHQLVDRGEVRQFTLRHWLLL

SMILES | pIC50 [1] | Amount [2]
OC1CCCN(C2(c3cc4ccccc4s3)CCCCC2)C1 (stereo not given) | 8.76 | 147 pmol
OC1CCN(C2(c3cc4ccccc4s3)CCCCC2)CC1 |  | 615 pmol
O[C@@H]1CCC[C@@](c2cc3ccccc3s2)(N2CCCCC2)C1 |  | 4 pM
OC1(c2cc3ccccc3s2)CCCCC1 |  | 141 pmol
